Measurements: US20260028326A1, “COMPOUND BASED ON ISOINDOLINE-SUBSTITUTED GLUTARIMIDE BACKBONE AND USE THEREOF” (GLUETACS THERAPEUTICS (SHANGHAI) CO., LTD., priority 2022, published 2026)

Biological target: human Cereblon WT GST-tagged protein (Homo sapiens (Human), UniProt Q96SW2)
Assay: CRBN-binding affinity, HTRF (CEREBLON BINDING kit)
Summary of the method: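 HTRF competition readout: compounds compete with a thalidomide-Re conjugate for GST-tagged wild-type human CRBN detected via Eu-labelled anti-GST antibody. Inhibition rate derived relative to protein-free blank wells.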

human Cereblon WT GST-tagged protein, sequence (Q96SW2 whole entry): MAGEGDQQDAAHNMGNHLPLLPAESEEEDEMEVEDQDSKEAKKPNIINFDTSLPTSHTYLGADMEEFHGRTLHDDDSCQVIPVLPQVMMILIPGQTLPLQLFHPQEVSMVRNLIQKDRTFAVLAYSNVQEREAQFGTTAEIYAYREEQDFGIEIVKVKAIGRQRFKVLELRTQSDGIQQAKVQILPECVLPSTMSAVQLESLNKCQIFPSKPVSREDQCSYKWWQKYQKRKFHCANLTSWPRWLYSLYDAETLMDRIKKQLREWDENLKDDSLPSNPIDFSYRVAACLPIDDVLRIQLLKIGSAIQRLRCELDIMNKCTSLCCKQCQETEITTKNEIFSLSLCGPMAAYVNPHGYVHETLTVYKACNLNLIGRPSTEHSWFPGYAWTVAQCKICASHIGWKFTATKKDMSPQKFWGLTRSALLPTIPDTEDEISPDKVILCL

Row | SMILES | IC50 [nM]
1 | CC1(C)CCC(C(=O)N2CCC(Cc3ccc4c(c3)CN(C3CCC(=O)NC3=O)C4=O)CC2)=C(c2ccc(F)cc2)C1 (centres unmarked) [GT-05487, 3-(5-((1-(4′-fluoro-5,5-dimethyl-3,4,5,6-tetrahydro-[1,1′-biphenyl]-2-carbonyl)piperidin-4-yl)methyl)-1-oxoisoindolin-2-yl)piperidine-2,6-dione] | 650
2 | CC1(C)CCC(CN2CC3CCC2CN3Cc2cc3c(cc2F)C(=O)N(C2CCC(=O)NC2=O)C3)=C(c2ccc(Cl)cc2)C1 (centres unmarked) [GT-05460, 3-(5-((5-((4′-chloro-5,5-dimethyl-3,4,5,6-tetrahydro-[1,1′-biphenyl]-2-yl)methyl)-2,5-diazabicyclo[2.2.2]octan-2-yl)methyl)-6-fluoro-1-oxoisoindolin-2-yl)piperidine-2,6-dione] | 1630
3 | CC1(C)CCC(CN2C3CCC2CN(C(=O)c2ccc4c(c2)CN(C2CCC(=O)NC2=O)C4=O)C3)=C(c2ccc(F)cc2)C1 (centres unmarked) [GT-05511, 3-(5-(8-((4′-fluoro-5,5-dimethyl-3,4,5,6-tetrahydro-[1,1′-biphenyl]-2-yl)methyl)-3,8-diazabicyclo[3.2.1]octane-3-carbonyl)-1-oxoisoindolin-2-yl)piperidine-2,6-dione] | 1950
4 | CC1(C)CCC(CN2CC3CC(C2)N3Cc2cc3c(cc2F)C(=O)N(C2CCC(=O)NC2=O)C3)=C(c2ccc(Cl)cc2)C1 (centres unmarked) [GT-05367, 3-(5-((3-((4′-chloro-5,5-dimethyl-3,4,5,6-tetrahydro-[1,1′-biphenyl]-2-yl)methyl)-3,6-diazabicyclo[3.1.1]heptan-6-yl)methyl)-6-fluoro-1-oxoisoindolin-2-yl)piperidine-2,6-dione] | 400
5 | CC1(C)CCC(CN2C3CCC2CN(Cc2ccc4c(c2)CN(C2CCC(=O)NC2=O)C4=O)C3)=C(c2ccc(Cl)cc2)C1 (centres unmarked) [GT-03996, 3-(5-((8-((4′-chloro-5,5-dimethyl-3,4,5,6-tetrahydro-[1,1′-biphenyl]-2-yl)methyl)-3,8-diazabicyclo[3.2.1]octan-3-yl)methyl)-1-oxoisoindolin-2-yl)piperidine-2,6-dione] | 1440
6 | CC1(C)CCC(CN2CC3CCC(C2)N3c2ccc3c(c2)CN(C2CCC(=O)NC2=O)C3=O)=C(c2ccc(F)cc2)C1 (centres unmarked) [GT-05498, 3-(5-(3-((4′-fluoro-5,5-dimethyl-3,4,5,6-tetrahydro-[1,1′-biphenyl]-2-yl)methyl)-3,8-diazabicyclo[3.2.1]octan-8-yl)-1-oxoisoindolin-2-yl)piperidine-2,6-dione] | 1520
7 | O=C1CCC(N2Cc3cccc(CN4C5CC4CN(C(=O)C4=C(c6ccc(F)cc6)CCCC4)C5)c3C2=O)C(=O)N1 (centres unmarked) [GT-05480, 3-(7-((3-(4′-fluoro-3,4,5,6-tetrahydro-[1,1′-biphenyl]-2-carbonyl)-3,6-diazabicyclo[3.1.1]heptan-6-yl)methyl)-1-oxoisoindolin-2-yl)piperidine-2,6-dione] | 1740
8 | O=C1CCC(N2Cc3cc(C(=O)N4C5CCC4CN(Cc4ccccc4-c4ccc(Cl)cc4)C5)ccc3C2=O)C(=O)N1 (centres unmarked) [GT-05638, 3-(5-(3-((4′-chloro-[1,1′-biphenyl]-2-yl)methyl)-3,8-diazabicyclo[3.2.1]octane-8-carbonyl)-1-oxoisoindolin-2-yl)piperidine-2,6-dione] | 1210
9 | CC1(C)CCC(CN2CC3CCC2CN3Cc2ccc3c(c2)C(=O)N(C2CCC(=O)NC2=O)C3)=C(c2ccc(Cl)cc2)C1 (centres unmarked) [GT-05485, 3-(6-((5-((4′-chloro-5,5-dimethyl-3,4,5,6-tetrahydro-[1,1′-biphenyl]-2-yl)methyl)-2,5-diazabicyclo[2.2.2]octan-2-yl)methyl)-1-oxoisoindolin-2-yl)piperidine-2,6-dione] | 740
10 | O=C1CCC(N2Cc3cc(CN4C5CC4CN(Cc4ccccc4-c4ccc(Cl)cc4)C5)cc(F)c3C2=O)C(=O)N1 (centres unmarked) [GT-05610, 3-(5-((3-((4′-chloro-[1,1′-biphenyl]-2-yl)methyl)-3,6-diazabicyclo[3.1.1]heptan-6-yl)methyl)-7-fluoro-1-oxoisoindolin-2-yl)piperidine-2,6-dione] | 640
11 | CC1(C)CCC(CN2CC3CN(Cc4ccc5c(c4)CN(C4CCC(=O)NC4=O)C5=O)CC3C2)=C(c2ccc(Cl)cc2)C1 (centres unmarked) [GT-05653, 3-(5-((5-((4′-chloro-5,5-dimethyl-3,4,5,6-tetrahydro-[1,1′-biphenyl]-2-yl)methyl)hexahydropyrrolo[3,4-c]pyrrol-2(1H)-yl)methyl)-1-oxoisoindolin-2-yl)piperidine-2,6-dione] | 1060

Second part, the molecule after the results:

Row | IC50 [nM] | SMILES
12 | 490 | CC1(C)CCC(C(=O)N2CC3CC2CN3Cc2ccc3c(c2)CN(C2CCC(=O)NC2=O)C3=O)=C(c2ccc(Cl)cc2)C1 (centres unmarked) [GT-05524, 3-(5-((5-(4′-chloro-5,5-dimethyl-3,4,5,6-tetrahydro-[1,1′-biphenyl]-2-carbonyl)-2,5-diazabicyclo[2.2.1]heptan-2-yl)methyl)-1-oxoisoindolin-2-yl)piperidine-2,6-dione]
13 | 1480 | O=C1CCC(N2Cc3cc(C(=O)N4CC5(CCN(Cc6ccccc6-c6ccc(Cl)cc6)CC5)C4)ccc3C2=O)C(=O)N1 (centres unmarked) [GT-05641, 3-(5-(7-((4′-chloro-[1,1′-biphenyl]-2-yl)methyl)-2,7-diazaspiro[3.5]nonane-2-carbonyl)-1-oxoisoindolin-2-yl)piperidine-2,6-dione]
14 | 1590 | O=C1CCC(N2Cc3cc(CC4CCN(Cc5ccccc5-c5ccc(Cl)cc5)CC4)ccc3C2=O)C(=O)N1 (centres unmarked) [GT-03361, 3-(5-((1-((4′-chloro-[1,1′-biphenyl]-2-yl)methyl)piperidin-4-yl)methyl)-1-oxoisoindolin-2-yl)piperidine-2,6-dione]
15 | 940 | CC1(C)CCC(C(=O)N2CCC(Nc3ccc4c(c3)CN(C3CCC(=O)NC3=O)C4=O)CC2)=C(c2ccc(Cl)cc2)C1 (centres unmarked) [GT-05783, 3-(5-((1-(4′-chloro-5,5-dimethyl-3,4,5,6-tetrahydro-[1,1′-biphenyl]-2-carbonyl)piperidin-4-yl)amino)-1-oxoisoindolin-2-yl)piperidine-2,6-dione]
16 | 720 | CC1(C)CCC(CN2CC3(C2)CN(C(=O)c2ccc4c(c2)CN(C2CCC(=O)NC2=O)C4=O)C3)=C(c2ccc(F)cc2)C1 (centres unmarked) [GT-05508, 3-(5-(6-((4′-fluoro-5,5-dimethyl-3,4,5,6-tetrahydro-[1,1′-biphenyl]-2-yl)methyl)-2,6-diazaspiro[3.3]heptane-2-carbonyl)-1-oxoisoindolin-2-yl)piperidine-2,6-dione]
17 | 340 | CC1(C)CCC(CN2CCN(Cc3cccc4c3CN(C3CCC(=O)NC3=O)C4=O)CC2)=C(c2ccc(F)cc2)C1 (centres unmarked) [GT-05393, 3-(4-((4-((4′-fluoro-5,5-dimethyl-3,4,5,6-tetrahydro-[1,1′-biphenyl]-2-yl)methyl)piperazin-1-yl)methyl)-1-oxoisoindolin-2-yl)piperidine-2,6-dione]
18 | 700 | O=C1CCC(N2Cc3cc(CN4CC5CN(C(=O)c6ccccc6-c6ccc(Cl)cc6)CC5C4)ccc3C2=O)C(=O)N1 (centres unmarked) [GT-05645, 3-(5-((5-(4′-chloro-[1,1′-biphenyl]-2-carbonyl)hexahydropyrrolo[3,4-c]pyrrol-2(1H)-yl)methyl)-1-oxoisoindolin-2-yl)piperidine-2,6-dione]
19 | 230 | O=C1CCC(N2Cc3cc(C(O)C4(O)CN(Cc5ccccc5-c5ccc(Cl)cc5)C4)ccc3C2=O)C(=O)N1 (centres unmarked) [GT-03880, 3-(5-((1-((4′-chloro-[1,1′-biphenyl]-2-yl)methyl)-3-hydroxyazetidin-3-yl)(hydroxy)methyl)-1-oxoisoindolin-2-yl)piperidine-2,6-dione]
20 | 570 | CC1(C)CCC(C(=O)N2CC3(C2)CN(C(=O)c2ccc4c(c2)CN(C2CCC(=O)NC2=O)C4=O)C3)=C(c2ccc(Cl)cc2)C1 (centres unmarked) [GT-05682, 3-(5-(6-(4′-chloro-5,5-dimethyl-3,4,5,6-tetrahydro-[1,1′-biphenyl]-2-carbonyl)-2,6-diazaspiro[3.3]heptane-2-carbonyl)-1-oxoisoindolin-2-yl)piperidine-2,6-dione]
21 | 940 | CC1(C)CCC(CN2CC3CCC2CN3C(=O)c2ccc3c(c2)CN(C2CCC(=O)NC2=O)C3=O)=C(c2ccc(Cl)cc2)C1 (centres unmarked) [GT-05795, 3-(5-(5-((4′-chloro-5,5-dimethyl-3,4,5,6-tetrahydro-[1,1′-biphenyl]-2-yl)methyl)-2,5-diazabicyclo[2.2.2]octane-2-carbonyl)-1-oxoisoindolin-2-yl)piperidine-2,6-dione]
22 | 1150 | CC1(C)CCC(CN2CC3CN(C(=O)c4ccc5c(c4)CN(C4CCC(=O)NC4=O)C5=O)CC3C2)=C(c2ccc(F)cc2)C1 (centres unmarked) [GT-05447, 3-(5-(5-((4′-fluoro-5,5-dimethyl-3,4,5,6-tetrahydro-[1,1′-biphenyl]-2-yl)methyl)octahydropyrrolo[3,4-c]pyrrole-2-carbonyl)-1-oxoisoindolin-2-yl)piperidine-2,6-dione]
23 | 970 | CC1(C)CCC(C(=O)N2CCN(Cc3ccc(-c4ccc5c(c4)CN(C4CCC(=O)NC4=O)C5=O)cc3)CC2)=C(c2ccc(Cl)cc2)C1 (centres unmarked) [GT-05359, 3-(5-(4-((4-(4′-chloro-5,5-dimethyl-3,4,5,6-tetrahydro-[1,1′-biphenyl]-2-carbonyl)piperazin-1-yl)methyl)phenyl)-1-oxoisoindolin-2-yl)piperidine-2,6-dione]
24 | 780 | O=C1CCC(N2Cc3cc(C(=O)N4CC5CC4CN5Cc4ccccc4-c4ccc(Cl)cc4)ccc3C2=O)C(=O)N1 (centres unmarked) [GT-05639, 3-(5-(5-((4′-chloro-[1,1′-biphenyl]-2-yl)methyl)-2,5-diazabicyclo[2.2.1]heptane-2-carbonyl)-1-oxoisoindolin-2-yl)piperidine-2,6-dione]
25 | 900 | O=C1CCC(N2Cc3cc(C(=O)N4CCCN(Cc5ccccc5-c5ccc(Cl)cc5)CC4)ccc3C2=O)C(=O)N1 (centres unmarked) [GT-05616, 3-(5-(4-((4′-chloro-[1,1′-biphenyl]-2-yl)methyl)-1,4-diazepane-1-carbonyl)-1-oxoisoindolin-2-yl)piperidine-2,6-dione]
26 | 1220 | O=C1CCC(N2Cc3cc(CN4CCN(C(=O)c5ccccc5-c5ccc(Cl)cc5)CC4)cc(F)c3C2=O)C(=O)N1 (centres unmarked) [GT-05700, 3-(5-((4-(4′-chloro-[1,1′-biphenyl]-2-carbonyl)piperazin-1-yl)methyl)-7-fluoro-1-oxoisoindolin-2-yl)piperidine-2,6-dione]
